Experimental data taken from US20080214808A1, “Preparation of Aseptic 3-[2-[4-((6-Fluoro-1,2-Benzisoxazol-3-Yl)-1-Piperidinyl]-6,7,8,9-Tetrahydro-9-Hydroxy-2-Methyl-4H-Pyrido[1,2-a]Pyrimidin-4-One Palmitate Ester” (priority 2005, published 2008).

Experiment: Gamma irradiation of compound (I) in different containers, amounts of (I) and breakdown products by HPLC
Assay type: physicochemical
Source text: During pharmaceutical development, aseptic formulations of paliperidone palmitate (I) were initially obtained by gamma irradiation.
Compound (I) was irradiated with various doses of gamma rays in different containers.

[1] = Glass container, gamma dose 5 kGY
[2] = Glass container, gamma dose 10 kGY
[3] = Glass container, gamma dose 15 kGY
[4] = Glass container, gamma dose 20 kGY
[5] = Glass container, gamma dose 25 kGY
[6] = Glass container, gamma dose 30 kGY
[7] = Glass/metal container, gamma dose 5 kGY
[8] = Glass/metal container, gamma dose 10 kGY
[9] = Glass/metal container, gamma dose 15 kGY
[10] = Glass/metal container, gamma dose 20 kGY
[11] = Glass/metal container, gamma dose 25 kGY
[12] = Glass/metal container, gamma dose 30 kGY
[13] = Plastic container, gamma dose 15 kGY
[14] = Plastic container, gamma dose 20 kGY
[15] = Plastic container, gamma dose 25 kGY
[16] = gamma irradiation, maximum found

amount of (I) [1]: 98.8% | amount of breakdown product (III) [1]: 0.08% | amount of breakdown products (II) [sum of (II-a) and (II-b)] [1]: 0.02% | amount of (I) [2]: 98.7% | amount of breakdown product (III) [2]: 0.15% | amount of breakdown products (II) [sum of (II-a) and (II-b)] [2]: 0.05% | amount of (I) [3]: 98.5% | amount of breakdown product (III) [3]: 0.23% | amount of breakdown products (II) [sum of (II-a) and (II-b)] [3]: 0.11% | amount of (I) [4]: 98.3% | amount of breakdown product (III) [4]: 0.34% | amount of breakdown products (II) [sum of (II-a) and (II-b)] [4]: 0.17% | amount of (I) [5]: 98.2% | amount of breakdown product (III) [5]: 0.36% | amount of breakdown products (II) [sum of (II-a) and (II-b)] [5]: 0.18% | amount of (I) [6]: 98% | amount of breakdown product (III) [6]: 0.46% | amount of breakdown products (II) [sum of (II-a) and (II-b)] [6]: 0.24% | amount of (I) [7]: 98.8% | amount of breakdown product (III) [7]: 0.08% | amount of breakdown products (II) [sum of (II-a) and (II-b)] [7]: 0.02% | amount of (I) [8]: 98.9% | amount of breakdown product (III) [8]: 0.1% | amount of (I) [9]: 98.5% | amount of breakdown product (III) [9]: 0.23% | amount of breakdown products (II) [sum of (II-a) and (II-b)] [9]: 0.11% | amount of (I) [10]: 98.4% | amount of breakdown product (III) [10]: 0.29% | amount of breakdown products (II) [sum of (II-a) and (II-b)] [10]: 0.15% | amount of (I) [11]: 97.2% | amount of breakdown product (III) [11]: 0.35% | amount of breakdown products (II) [sum of (II-a) and (II-b)] [11]: 0.05% | amount of (I) [12]: 98.2% | amount of breakdown product (III) [12]: 0.45% | amount of breakdown products (II) [sum of (II-a) and (II-b)] [12]: 0.21% | amount of (I) [13]: 98.3% | amount of breakdown product (III) [13]: 0.23% | amount of breakdown products (II) [sum of (II-a) and (II-b)] [13]: 0.03% | amount of (I) [14]: 97.9% | amount of breakdown product (III) [14]: 0.29% | amount of breakdown products (II) [sum of (II-a) and (II-b)] [14]: 0.03% | amount of (I) [15]: 97.2% | amount of breakdown product (III) [15]: 0.35% | amount of breakdown products (II) [sum of (II-a) and (II-b)] [15]: 0.06% | breakdown product (III) formed [16]: up to 0.46% | breakdown products (II) [(II-a) and (II-b), co-eluting in HPLC] formed [16]: up to 0.24% | amount of the breakdown products (II) and (III) versus gamma dose (various doses of gamma rays, different containers): increased dose-dependently
SMILES: CCCCCCCCCCCCCCCC(=O)OC1CCCn2c1nc(C)c(CCN1CCC(c3noc4cc(F)ccc34)CC1)c2=O (centres unmarked) [(I), 3-[2-[4-(6-fluoro-1,2-benzisoxazol-3-yl)-1-piperidinyl]ethyl]-6,7,8,9-tetrahydro-9-hydroxy-2-methyl-4H-pyrido[1,2-a]pyrimidin-4-one palmitate ester]
